# Laboratory results published in US7662832B2, “Pyrrolo[2,3-c]pyridine derivatives and processes for the preparation thereof” (priority 2004, dated 2010).
# Counter-ions that a name gives are not always drawn.
# Biological target: Proton Pump (H^+/K^+-ATPase) (Sus scrofa, UniProt P19156)
# Assay: Inhibitory effects on proton pump (H^+/K^+-ATPase) activity
# Format: biochemical
# Details: hog gastric vesicles; K^+ stimulated H^+/K^+-ATPase activity; 30 minutes at 37° C.
# Proton Pump (H^+/K^+-ATPase), sequence (P19156 2-1034 limits assumed): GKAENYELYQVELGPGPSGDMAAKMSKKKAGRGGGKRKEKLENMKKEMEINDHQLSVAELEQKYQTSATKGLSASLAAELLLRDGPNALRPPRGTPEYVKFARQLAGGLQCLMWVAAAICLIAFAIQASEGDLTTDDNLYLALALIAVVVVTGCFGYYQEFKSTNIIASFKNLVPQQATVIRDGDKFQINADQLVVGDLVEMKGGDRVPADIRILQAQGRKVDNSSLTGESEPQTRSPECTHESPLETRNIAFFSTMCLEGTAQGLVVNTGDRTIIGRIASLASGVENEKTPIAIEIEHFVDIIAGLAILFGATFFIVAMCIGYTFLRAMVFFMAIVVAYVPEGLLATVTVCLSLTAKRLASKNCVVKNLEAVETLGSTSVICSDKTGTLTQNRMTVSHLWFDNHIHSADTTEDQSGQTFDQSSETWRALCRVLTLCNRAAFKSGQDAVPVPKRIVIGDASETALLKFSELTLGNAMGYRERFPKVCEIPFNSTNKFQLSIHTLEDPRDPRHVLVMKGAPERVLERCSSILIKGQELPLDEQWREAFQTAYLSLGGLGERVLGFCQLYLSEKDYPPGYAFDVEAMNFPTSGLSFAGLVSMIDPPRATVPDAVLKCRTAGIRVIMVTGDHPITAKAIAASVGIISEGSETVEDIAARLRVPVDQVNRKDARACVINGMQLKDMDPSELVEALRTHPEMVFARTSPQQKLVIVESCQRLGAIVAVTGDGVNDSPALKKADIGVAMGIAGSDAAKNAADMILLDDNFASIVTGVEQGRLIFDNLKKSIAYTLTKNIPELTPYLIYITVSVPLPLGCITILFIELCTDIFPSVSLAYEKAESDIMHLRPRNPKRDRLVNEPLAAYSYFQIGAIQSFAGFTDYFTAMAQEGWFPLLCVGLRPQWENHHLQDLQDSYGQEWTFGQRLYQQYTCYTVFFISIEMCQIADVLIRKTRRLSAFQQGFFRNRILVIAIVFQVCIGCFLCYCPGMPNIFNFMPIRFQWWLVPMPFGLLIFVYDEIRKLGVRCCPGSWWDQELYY
# Proton Pump (H^+/K^+-ATPase), sequence (P18434 whole entry partner): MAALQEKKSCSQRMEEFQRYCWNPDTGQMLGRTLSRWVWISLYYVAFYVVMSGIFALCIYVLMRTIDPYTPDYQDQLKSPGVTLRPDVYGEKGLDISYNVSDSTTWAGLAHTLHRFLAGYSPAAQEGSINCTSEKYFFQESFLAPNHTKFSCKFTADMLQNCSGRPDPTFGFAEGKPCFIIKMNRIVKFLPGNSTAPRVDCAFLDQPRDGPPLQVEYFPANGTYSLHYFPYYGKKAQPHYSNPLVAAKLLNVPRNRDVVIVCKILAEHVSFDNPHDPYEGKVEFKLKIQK
row,SMILES,IC50 [nM]
1,"COCCn1c(C)c(C)c2ccnc(N3CCc4ccccc4C3C3CC3)c21 (centres unmarked) [Example 571, 1-cyclopropyl-2-[1-(2-methoxyethyl)-2,3-dimethyl-1H-pyrrolo[2,3-c]pyridin-7-yl]-1,2,3,4-tetrahydroisoquinoline hydrochloride]",470
2,"CCC1c2ccccc2CCN1c1nccc2c(C)c(C)[nH]c12 (centres unmarked) [Example 574, 2-(2,3-dimethyl-1H-pyrrolo[2,3-c]pyridin-7-yl)-1-ethyl-1,2,3,4-tetrahydroisoquinoline hydrochloride]",420
3,"CCC1c2ccccc2CCN1c1nccc2c(C)c(C)n(C)c12 (centres unmarked) [Example 575, 1-ethyl-2-(1,2,3-trimethyl-1H-pyrrolo[2,3-c]pyridin-7-yl)-1,2,3,4-tetrahydroisoquinoline hydrochloride]",470
4,"CCC1c2ccccc2CCN1c1nccc2c(C)c(C)n(CC)c12 (centres unmarked) [Example 576, 1-ethyl-2-(1-ethyl-2,3-dimethyl-1H-pyrrolo[2,3-c]pyridin-7-yl)-1,2,3,4-tetrahydroisoquinoline hydrochloride]",220
5,"C=CCn1c(C)c(C)c2ccnc(N3CCc4ccccc4C3CC)c21 (centres unmarked) [Example 577, 2-(1-allyl-2,3-dimethyl-1H-pyrrolo[2,3-c]pyridin-7-yl)-1-ethyl-1,2,3,4-tetrahydroisoquinoline hydrochloride]",140
6,"CCC1c2ccccc2CCN1c1nccc2c(C)c(C)n(CC=C(C)C)c12 (centres unmarked) [Example 578, 2-[2,3-dimethyl-1-(3-methylbut-2-enyl)-1H-pyrrolo[2,3-c]pyridin-7-yl]-1-ethyl-1,2,3,4-tetrahydroisoquinoline hydrochloride]",290
7,"CCC1c2ccccc2CCN1c1nccc2c(C)c(C)n(Cc3ccc(OC)cc3)c12 (centres unmarked) [Example 583, 1-ethyl-2-[1-(4-methoxybenzyl)-2,3-dimethyl-1H-pyrrolo[2,3-c]pyridin-7-yl]-1,2,3,4-tetrahydroisoquinoline hydrochloride]",380
8,"CCC1c2ccccc2CCN1c1nccc2c(C)c(C)n(COC)c12 (centres unmarked) [Example 584, 1-ethyl-2-(1-methoxymethyl-2,3-dimethyl-1H-pyrrolo[2,3-c]pyridin-7-yl)-1,2,3,4-tetrahydroisoquinoline hydrochloride]",330
9,"CCC1c2ccccc2CCN1c1nccc2c(C)c(C)n(CCOC)c12 (centres unmarked) [Example 585, 1-ethyl-2-[1-(2-methoxyethyl)-2,3-dimethyl-1H-pyrrolo[2,3-c]pyridin-7-yl]-1,2,3,4-tetrahydroisoquinoline hydrochloride]",370
10,"CCC1c2ccccc2CCN1c1nccc2c(C)c(C)n(Cc3csc(C)n3)c12 (centres unmarked) [Example 586, 1-ethyl-2-[2,3-dimethyl-1-(2-methylthiazol-4-ylmethyl)-1H-pyrrolo[2,3-c]pyridin-7-yl]-1,2,3,4-tetrahydroisoquinoline hydrochloride]",330
11,"CCc1[nH]c2c(N3CCc4ccccc4C3)nccc2c1C [Example 591, 2-ethyl-3-methyl-7-(1,2,3,4-tetrahydroisoquinolin-2-yl)-1H-pyrrolo[2,3-c]pyridine]",499
12,"CCc1c(C)c2ccnc(N3CCc4ccccc4C3)c2n1C [Example 609, 2-ethyl-1,3-dimethyl-7-(1,2,3,4-tetrahydroisoquinolin-2-yl)-1H-pyrrolo[2,3-c]pyridine hydrochloride]",379
13,"Cc1cc2ccnc(N3CCc4ccccc4C3)c2n1Cc1cccc(F)c1 [Example 613, 2-[1-(3-fluorobenzyl)-2-methyl-1H-pyrrolo[2,3-c]pyridin-7-yl]-1,2,3,4-tetrahydroisoquinoline hydrochloride]",375
14,"Cc1c(CO)c2ccnc(N3CCc4ccccc4C3)c2n1Cc1cccc(F)c1 [Example 617, [7-(3,4-dihydro-1H-isoquinolin-2-yl)-1-(3-fluorobenzyl)-2-methyl-1H-pyrrolo[2,3-c]pyridin-3-yl]-methanol hydrochloride]",65
15,"Cc1c(CC#N)c2ccnc(N3CCc4ccccc4C3)c2n1Cc1ccccc1 [Example 624, [1-benzyl-7-(3,4-dihydro-1H-isoquinolin-2-yl)-2-methyl-1H -pyrrolo[2,3-c]pyridin-3-yl]-acetonitrile hydrochloride]",10
16,"Cc1c(C)n(Cc2cccc(F)c2)c2c(N3CCc4ccccc4C3)nc(Cl)cc12 [Example 657, 5-chloro-[1-(3-fluorobenzyl)-7-(1,2,3,4-tetrahydroisoquinolin-2-yl)]-2,3-dimethyl-1H-pyrrolo[2,3-c]pyridine hydrochloride]",240
17,"C#CCn1c(C)c(C)c2cc(Cl)nc(N3CCc4ccccc4C3)c21 [Example 659, 2-[5-chloro-2,3-dimethyl-1-(prop-2-ynyl)-1H-pyrrolo[2,3-c]pyridin-7-yl]-1,2,3,4-tetrahydroisoquinoline]",439
18,"C=CCCn1c(C)c(C)c2cc(C#N)nc(N3CCc4ccccc4C3)c21 [Example 683, 1-(but-3-enyl)-7-(3,4-dihydro-1H-isoquinolin-2-yl)-2,3-dimethyl-1H-pyrrolo[2,3-c]pyridin-5-carbonitrile]",1560
19,"C=CCn1c(C)c(C)c2cc(C#N)nc(N3CCc4ccccc4C3)c21 [Example 684, 1-allyl-7-(3,4-dihydro-1H-isoquinolin-2-yl)-2,3-dimethyl-1H-pyrrolo[2,3-c]pyridin-5-carbonitrile]",490
20,"Cc1c(C)n(Cc2cccc(Cl)c2)c2c(N3CCc4ccccc4C3)nc(C#N)cc12 [Example 689, 1-(3-chlorobenzyl)-7-(3,4-dihydro-1H-isoquinolin-2-yl)-2,3-dimethyl-1H-pyrrolo[2,3-c]pyridin-5-carbonitrile]",331
21,"Cc1c(C)n(Cc2cccc(F)c2)c2c(N3CCc4ccccc4C3)nc(C#N)cc12 [Example 695, 7-(3,4-dihydro-1H-isoquinolin-2-yl)-1-(3-fluorobenzyl)-2,3-dimethyl-1H-pyrrolo[2,3-c]pyridin-5-carbonitrile]",481
22,"CCCn1c(C)c(C)c2cc(C#N)nc(N3CCc4ccccc4C3)c21 [Example 697, 7-(3,4-dihydro-1H-isoquinolin-2-yl)-2,3-dimethyl-1-propyl-1H-pyrrolo[2,3-c]pyridin-5-carbonitrile]",3200
23,"C=CCn1c(C)c(C)c2cc(C(=O)O)nc(N3CCc4ccccc4C3)c21 [Example 732, 1-allyl-7-(3,4-dihydro-1H-isoquinolin-2-yl)-2,3-dimethyl-1H-pyrrolo[2,3-c]pyridin-5-carboxylic acid]",22
24,"Cc1c(C)n(Cc2ccccc2)c2c(N3CCc4ccccc4C3)nc(C(=O)O)cc12 [Example 733, 1-benzyl-7-(3,4-dihydro-1H-isoquinolin-2-yl)-2,3-dimethyl-1H-pyrrolo[2,3-c]pyridin-5-carboxylic acid]",117
25,"COCCn1c(C)c(C)c2cc(C(=O)O)nc(N3CCc4ccccc4C3)c21 [Example 734, 7-(3,4-dihydro-1H-isoquinolin-2-yl)-1-(2-methoxyethyl)-2,3-dimethyl-1H-pyrrolo[2,3-c]pyridin-5-carboxylic acid]",366
26,"Cc1c(C)n(Cc2cccc(Cl)c2)c2c(N3CCc4ccccc4C3)nc(C(=O)O)cc12 [Example 735, 1-(3-chlorobenzyl)-7-(3,4-dihydro-1H-isoquinolin-2-yl)-2,3-dimethyl-1H-pyrrolo[2,3-c]pyridin-5-carboxylic acid]",54
